Calls of active or inactive are those of the source. Bounds are passed on as bounds.

Experiment [1] concerns the target T1, Zinc finger protein mex-5 (Caenorhabditis elegans, UniProt Q9XUB2).
T1 sequence (Q9XUB2 whole entry): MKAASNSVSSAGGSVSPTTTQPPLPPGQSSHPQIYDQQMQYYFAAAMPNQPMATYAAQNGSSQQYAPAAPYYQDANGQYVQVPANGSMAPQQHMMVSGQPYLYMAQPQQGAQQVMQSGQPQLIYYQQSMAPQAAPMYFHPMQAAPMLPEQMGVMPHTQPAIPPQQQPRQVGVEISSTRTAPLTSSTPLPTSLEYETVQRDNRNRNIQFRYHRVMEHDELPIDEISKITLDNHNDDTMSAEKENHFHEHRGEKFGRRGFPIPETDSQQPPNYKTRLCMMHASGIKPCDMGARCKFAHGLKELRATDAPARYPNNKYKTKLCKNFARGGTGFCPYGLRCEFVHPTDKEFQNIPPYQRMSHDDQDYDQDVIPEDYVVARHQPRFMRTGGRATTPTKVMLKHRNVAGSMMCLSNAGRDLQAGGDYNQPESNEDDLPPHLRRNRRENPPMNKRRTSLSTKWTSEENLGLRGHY
The experiment is described as follows: MEX-5/TCR-2 RNA interaction inhibitors, dose response, biochemical, C. elegans, fluorescence polarization (AID 1960). On the technique in general: Fluorescence polarisation rises when a labelled molecule tumbles more slowly, as on binding a larger partner.

Experiment [2] concerns Saccharomyces cerevisiae. The experiment is described as follows: NALP1 inhibitor project selectivity study, Caspase-1/ASC signal blockade IC50 in S. cerevisiae (AID 488863). The format is functional, organism-based.
For experiment [3], the target named is T2, Protein RecA (Mycobacterium tuberculosis, UniProt P9WHJ3).
T2 sequence (P9WHJ3 whole entry): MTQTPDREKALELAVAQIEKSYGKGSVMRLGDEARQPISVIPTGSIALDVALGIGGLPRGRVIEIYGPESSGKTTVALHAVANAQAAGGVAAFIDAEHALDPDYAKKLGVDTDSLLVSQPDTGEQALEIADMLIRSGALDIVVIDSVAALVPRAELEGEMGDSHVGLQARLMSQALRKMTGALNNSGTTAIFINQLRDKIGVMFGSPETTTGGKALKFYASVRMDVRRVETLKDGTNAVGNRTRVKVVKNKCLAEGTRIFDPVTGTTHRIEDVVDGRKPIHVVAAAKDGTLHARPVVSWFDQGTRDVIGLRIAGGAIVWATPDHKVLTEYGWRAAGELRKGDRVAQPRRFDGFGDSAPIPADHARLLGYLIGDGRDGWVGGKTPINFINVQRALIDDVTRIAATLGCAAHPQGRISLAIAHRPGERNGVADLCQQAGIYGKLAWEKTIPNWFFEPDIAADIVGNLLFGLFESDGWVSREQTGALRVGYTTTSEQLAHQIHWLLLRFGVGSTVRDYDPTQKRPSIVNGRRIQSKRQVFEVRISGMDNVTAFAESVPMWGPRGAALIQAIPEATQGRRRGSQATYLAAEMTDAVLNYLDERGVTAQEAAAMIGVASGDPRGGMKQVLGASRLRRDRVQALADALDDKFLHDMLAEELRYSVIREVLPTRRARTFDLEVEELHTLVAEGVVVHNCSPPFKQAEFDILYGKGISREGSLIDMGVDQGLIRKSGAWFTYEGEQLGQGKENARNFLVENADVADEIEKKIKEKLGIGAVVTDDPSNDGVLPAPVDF
Briefly: Fluorescence Cell-Free Homogeneous Dose Retest to Identify Inhibitors of RecA-Intein Splicing Activity. [Related pubchem assays (depositor defined):AID2097, AID2223, AID489010, AID492950]. It counts as functional.

Experiment [4] addresses Serine/threonine-protein kinase Chk1 (Homo sapiens, UniProt O14757). It counts as functional.
In experiment [5] the target is Aurora kinase B (Homo sapiens, UniProt Q96GD4). It counts as functional.
In experiment [6] the target is Tyrosine-protein kinase ABL1 (Homo sapiens, UniProt P00519). The format is functional.
For experiment [7], the target named is T3, Serine/threonine-protein kinase Nek2 (Homo sapiens, UniProt P51955).
T3 sequence (P51955 whole entry): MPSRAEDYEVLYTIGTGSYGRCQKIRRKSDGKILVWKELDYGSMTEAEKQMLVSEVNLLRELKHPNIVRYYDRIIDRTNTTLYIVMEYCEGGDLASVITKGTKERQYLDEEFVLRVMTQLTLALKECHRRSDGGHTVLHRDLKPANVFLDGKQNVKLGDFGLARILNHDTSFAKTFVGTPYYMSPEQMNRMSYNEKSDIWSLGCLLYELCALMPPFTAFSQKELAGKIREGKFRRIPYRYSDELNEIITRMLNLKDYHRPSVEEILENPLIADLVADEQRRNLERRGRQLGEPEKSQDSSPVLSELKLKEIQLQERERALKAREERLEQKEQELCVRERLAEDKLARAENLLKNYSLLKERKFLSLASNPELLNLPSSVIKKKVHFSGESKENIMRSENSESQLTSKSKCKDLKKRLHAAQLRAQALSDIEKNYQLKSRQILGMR
The format is functional.

Experiment [8] addresses Platelet-derived growth factor receptor beta (Homo sapiens, UniProt P09619). The format is functional.
Experiment [9] concerns the target Mitogen-activated protein kinase 9 (Homo sapiens, UniProt P45984). It counts as functional.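 Further: value from a kinome panel profiling assay, MAPK9 panel entry.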
The target in experiment [10] is Mitogen-activated protein kinase 14 (Homo sapiens, UniProt Q16539). It counts as functional.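 Further: part of a kinome-wide panel, MAPK14 entry.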
Experiment [11] deals with LIM domain kinase 1 (Homo sapiens, UniProt P53667). Briefly: Navigating the Kinome. Panel member name: LIMK1. It counts as functional.
In experiment [12] the target is Serine/threonine-protein kinase 3 (Homo sapiens, UniProt Q13188). The format is functional.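 Further: measured as one member of a kinome-wide kinase panel.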
Experiment [13] deals with Maternal embryonic leucine zipper kinase (Homo sapiens, UniProt Q14680). It counts as functional.
Experiment [14] deals with Mitogen-activated protein kinase kinase kinase kinase 4 (Homo sapiens, UniProt O95819). The format is functional.
The target of experiment [15] is MAP/microtubule affinity-regulating kinase 4 (Homo sapiens, UniProt Q96L34). The experiment is described as follows: Navigating the Kinome. Panel member name: MARK4. It counts as functional.
Experiment [16] has as its target Cytochrome P450 2C19 (Homo sapiens, UniProt P33261). Briefly: Cytochrome panel assay with activity outcomes. Panel member name: p450-cyp2c19 Compounds with AC50 equal or less than 10 uM are considered active. To be noted: read-out: AC50. It counts as functional.
Experiment [17] deals with Serine/threonine-protein kinase SIK2 (Homo sapiens, UniProt Q9H0K1). The experiment is described as follows: Navigating the Kinome. Panel member name: SIK2. The format is functional.
The target of experiment [18] is Mitogen-activated protein kinase kinase kinase 10 (Homo sapiens, UniProt Q02779). Briefly: Navigating the Kinome. Panel member name: MAP3K10. It counts as functional.
For experiment [19], the target named is Homeodomain-interacting protein kinase 2 (Homo sapiens, UniProt Q9H2X6). The format is functional.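 Further: measured within a kinome-wide kinase profiling panel, HIPK2 being one panel member.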
Experiment [20] has as its target Misshapen-like kinase 1 (Homo sapiens, UniProt Q8N4C8). The format is functional.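 Further: kinome panel screen with MINK as the panel member.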

Aurora kinase B, sequence (Q96GD4 whole entry): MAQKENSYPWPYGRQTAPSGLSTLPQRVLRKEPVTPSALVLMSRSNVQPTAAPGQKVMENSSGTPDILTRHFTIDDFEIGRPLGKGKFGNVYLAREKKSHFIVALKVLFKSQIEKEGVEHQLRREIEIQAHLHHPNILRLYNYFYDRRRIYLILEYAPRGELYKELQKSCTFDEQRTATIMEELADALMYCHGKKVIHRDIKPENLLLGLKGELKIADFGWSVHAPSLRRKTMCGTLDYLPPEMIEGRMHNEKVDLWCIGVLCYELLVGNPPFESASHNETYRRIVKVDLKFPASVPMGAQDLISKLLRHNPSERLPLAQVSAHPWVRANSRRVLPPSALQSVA
Mitogen-activated protein kinase 14, sequence (Q16539 whole entry, the tested form may be a part): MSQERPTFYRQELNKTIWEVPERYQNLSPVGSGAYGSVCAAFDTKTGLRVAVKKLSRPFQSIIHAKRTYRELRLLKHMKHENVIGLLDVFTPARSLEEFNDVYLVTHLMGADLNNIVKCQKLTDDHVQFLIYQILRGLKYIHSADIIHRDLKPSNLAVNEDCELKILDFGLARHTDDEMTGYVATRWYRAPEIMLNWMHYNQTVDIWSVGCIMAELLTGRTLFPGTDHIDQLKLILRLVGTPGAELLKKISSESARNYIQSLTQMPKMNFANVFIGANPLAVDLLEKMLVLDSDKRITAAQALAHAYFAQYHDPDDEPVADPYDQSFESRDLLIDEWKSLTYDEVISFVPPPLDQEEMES
Mitogen-activated protein kinase 9, sequence (P45984 whole entry): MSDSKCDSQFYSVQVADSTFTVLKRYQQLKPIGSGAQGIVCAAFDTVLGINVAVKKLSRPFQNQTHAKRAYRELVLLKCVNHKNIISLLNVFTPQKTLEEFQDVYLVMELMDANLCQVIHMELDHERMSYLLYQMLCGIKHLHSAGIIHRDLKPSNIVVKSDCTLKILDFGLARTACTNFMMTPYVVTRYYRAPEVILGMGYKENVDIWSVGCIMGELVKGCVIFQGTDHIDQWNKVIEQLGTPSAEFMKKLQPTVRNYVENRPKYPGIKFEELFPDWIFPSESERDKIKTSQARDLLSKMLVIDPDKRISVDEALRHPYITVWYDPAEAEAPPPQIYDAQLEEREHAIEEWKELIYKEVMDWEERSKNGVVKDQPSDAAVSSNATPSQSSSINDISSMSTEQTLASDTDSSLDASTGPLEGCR
Serine/threonine-protein kinase Chk1, sequence (O14757 whole entry): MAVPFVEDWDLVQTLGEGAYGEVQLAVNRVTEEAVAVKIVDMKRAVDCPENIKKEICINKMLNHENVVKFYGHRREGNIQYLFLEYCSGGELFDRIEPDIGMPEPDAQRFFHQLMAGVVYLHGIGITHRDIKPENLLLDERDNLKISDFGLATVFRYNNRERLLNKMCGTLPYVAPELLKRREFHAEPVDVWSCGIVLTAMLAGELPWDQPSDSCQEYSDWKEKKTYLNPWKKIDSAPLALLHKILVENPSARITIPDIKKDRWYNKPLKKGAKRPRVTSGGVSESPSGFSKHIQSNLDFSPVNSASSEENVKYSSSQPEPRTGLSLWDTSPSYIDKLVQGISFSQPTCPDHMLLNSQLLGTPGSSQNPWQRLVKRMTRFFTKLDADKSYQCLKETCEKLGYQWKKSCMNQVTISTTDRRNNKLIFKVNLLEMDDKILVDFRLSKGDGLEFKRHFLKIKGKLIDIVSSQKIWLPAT
LIM domain kinase 1, sequence (P53667 whole entry, the tested form may be a part): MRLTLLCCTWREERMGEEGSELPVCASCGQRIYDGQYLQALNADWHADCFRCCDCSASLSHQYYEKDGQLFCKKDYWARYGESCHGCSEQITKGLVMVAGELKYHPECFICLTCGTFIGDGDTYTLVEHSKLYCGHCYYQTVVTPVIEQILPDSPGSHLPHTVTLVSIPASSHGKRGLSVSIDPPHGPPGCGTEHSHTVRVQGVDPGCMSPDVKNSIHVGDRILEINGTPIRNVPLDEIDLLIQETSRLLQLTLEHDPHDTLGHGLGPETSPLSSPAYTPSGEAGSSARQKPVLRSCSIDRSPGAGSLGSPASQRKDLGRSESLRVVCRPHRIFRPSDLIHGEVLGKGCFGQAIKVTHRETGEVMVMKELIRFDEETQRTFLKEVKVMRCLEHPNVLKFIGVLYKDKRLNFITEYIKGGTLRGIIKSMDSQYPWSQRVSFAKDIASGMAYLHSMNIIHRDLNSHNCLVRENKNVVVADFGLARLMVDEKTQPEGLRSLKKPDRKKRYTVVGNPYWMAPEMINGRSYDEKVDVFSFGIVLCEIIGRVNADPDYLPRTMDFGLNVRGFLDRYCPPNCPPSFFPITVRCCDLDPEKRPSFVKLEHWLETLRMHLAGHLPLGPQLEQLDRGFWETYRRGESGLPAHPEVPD
Maternal embryonic leucine zipper kinase, sequence (Q14680 whole entry): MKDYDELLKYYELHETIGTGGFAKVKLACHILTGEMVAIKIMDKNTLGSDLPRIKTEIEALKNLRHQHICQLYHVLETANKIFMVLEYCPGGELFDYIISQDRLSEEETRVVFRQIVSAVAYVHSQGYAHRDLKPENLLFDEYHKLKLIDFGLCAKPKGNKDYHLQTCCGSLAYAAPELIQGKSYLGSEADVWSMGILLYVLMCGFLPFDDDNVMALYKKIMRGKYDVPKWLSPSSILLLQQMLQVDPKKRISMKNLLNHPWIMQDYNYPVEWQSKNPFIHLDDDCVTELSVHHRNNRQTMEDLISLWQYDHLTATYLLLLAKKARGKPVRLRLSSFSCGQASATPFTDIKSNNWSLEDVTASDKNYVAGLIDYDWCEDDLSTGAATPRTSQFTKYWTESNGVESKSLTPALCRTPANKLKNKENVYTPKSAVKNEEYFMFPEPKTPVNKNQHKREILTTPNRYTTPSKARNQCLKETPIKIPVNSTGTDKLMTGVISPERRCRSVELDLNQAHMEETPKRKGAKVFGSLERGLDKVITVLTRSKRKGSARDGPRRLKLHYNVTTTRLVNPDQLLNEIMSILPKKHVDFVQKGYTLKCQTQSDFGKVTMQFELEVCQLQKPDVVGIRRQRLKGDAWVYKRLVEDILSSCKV
Tyrosine-protein kinase ABL1, sequence (P00519 whole entry): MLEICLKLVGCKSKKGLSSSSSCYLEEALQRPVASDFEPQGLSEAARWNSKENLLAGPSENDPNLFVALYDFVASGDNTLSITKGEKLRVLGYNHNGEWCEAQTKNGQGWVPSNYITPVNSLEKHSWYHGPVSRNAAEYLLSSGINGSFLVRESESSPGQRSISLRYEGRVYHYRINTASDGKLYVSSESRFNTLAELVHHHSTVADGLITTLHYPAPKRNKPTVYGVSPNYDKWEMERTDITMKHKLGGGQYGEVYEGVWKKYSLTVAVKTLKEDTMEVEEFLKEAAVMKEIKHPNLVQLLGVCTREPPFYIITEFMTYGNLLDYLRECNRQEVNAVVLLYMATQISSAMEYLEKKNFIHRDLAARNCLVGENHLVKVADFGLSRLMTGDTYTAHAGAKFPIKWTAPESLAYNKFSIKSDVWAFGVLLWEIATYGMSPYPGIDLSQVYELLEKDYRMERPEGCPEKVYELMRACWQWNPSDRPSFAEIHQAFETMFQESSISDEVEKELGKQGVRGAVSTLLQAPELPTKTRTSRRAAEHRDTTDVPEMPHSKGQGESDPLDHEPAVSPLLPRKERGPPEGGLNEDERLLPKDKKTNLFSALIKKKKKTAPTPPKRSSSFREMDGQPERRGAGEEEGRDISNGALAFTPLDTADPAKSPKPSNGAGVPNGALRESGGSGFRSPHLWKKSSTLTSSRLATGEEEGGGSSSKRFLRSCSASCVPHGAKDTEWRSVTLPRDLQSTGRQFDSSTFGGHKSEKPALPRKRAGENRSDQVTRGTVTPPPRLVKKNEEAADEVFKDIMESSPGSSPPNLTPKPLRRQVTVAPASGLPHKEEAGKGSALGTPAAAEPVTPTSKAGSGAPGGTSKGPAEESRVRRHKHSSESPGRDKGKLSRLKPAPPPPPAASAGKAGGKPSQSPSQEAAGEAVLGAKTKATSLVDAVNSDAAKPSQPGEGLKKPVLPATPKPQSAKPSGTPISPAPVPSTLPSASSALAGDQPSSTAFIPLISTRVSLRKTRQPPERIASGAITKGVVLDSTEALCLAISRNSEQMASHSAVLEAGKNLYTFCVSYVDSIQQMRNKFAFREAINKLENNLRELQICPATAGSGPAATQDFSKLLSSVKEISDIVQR
Serine/threonine-protein kinase 3, sequence (Q13188 whole entry): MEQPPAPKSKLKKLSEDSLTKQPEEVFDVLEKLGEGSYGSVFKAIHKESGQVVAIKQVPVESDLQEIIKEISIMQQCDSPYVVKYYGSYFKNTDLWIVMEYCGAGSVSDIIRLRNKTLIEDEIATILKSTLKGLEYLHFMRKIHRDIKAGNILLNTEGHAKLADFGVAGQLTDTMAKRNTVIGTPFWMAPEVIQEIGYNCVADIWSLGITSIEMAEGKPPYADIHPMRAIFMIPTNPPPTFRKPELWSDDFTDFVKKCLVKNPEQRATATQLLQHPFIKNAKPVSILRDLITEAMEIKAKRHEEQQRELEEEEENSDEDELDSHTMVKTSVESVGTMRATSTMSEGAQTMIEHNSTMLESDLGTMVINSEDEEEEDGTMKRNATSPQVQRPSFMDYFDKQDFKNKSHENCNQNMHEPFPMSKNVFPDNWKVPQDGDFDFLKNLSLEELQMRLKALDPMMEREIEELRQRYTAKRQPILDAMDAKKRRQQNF
Cytochrome P450 2C19, sequence (P33261 whole entry): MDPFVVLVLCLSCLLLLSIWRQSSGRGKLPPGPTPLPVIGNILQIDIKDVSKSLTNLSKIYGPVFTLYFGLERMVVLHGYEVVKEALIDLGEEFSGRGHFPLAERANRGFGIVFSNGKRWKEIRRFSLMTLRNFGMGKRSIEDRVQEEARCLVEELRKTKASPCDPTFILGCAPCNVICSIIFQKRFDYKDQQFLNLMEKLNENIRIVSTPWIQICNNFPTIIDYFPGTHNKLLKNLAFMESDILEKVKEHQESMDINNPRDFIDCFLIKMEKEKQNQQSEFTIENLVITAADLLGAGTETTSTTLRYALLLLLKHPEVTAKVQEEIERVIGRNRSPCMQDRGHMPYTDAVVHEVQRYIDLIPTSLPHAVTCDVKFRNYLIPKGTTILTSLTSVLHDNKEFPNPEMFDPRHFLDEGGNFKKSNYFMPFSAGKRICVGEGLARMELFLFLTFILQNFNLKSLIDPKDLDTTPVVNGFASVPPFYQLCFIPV

What is called EC50 is the midpoint of the concentration-response curve. A word on the IC50: it is the midpoint of a concentration-inhibition curve. On to `c1ccc2nc3cc4[nH]cnc4cc3nc2c1`, for which the results for the EC50 in experiment [1] and in [3] were 1.74 µM (inconclusive) and 29.6 µM (inconclusive), respectively. Moreover, the IC50 in [2] was 32.7 µM (active).

The Ki is a measure of affinity in units of concentration, obtained from inhibition or displacement. For `COc1cccc(C(C)NC(=O)c2sc(-c3ccncc3)nc2C)c1` (stereo not given), the Ki in experiment [4] was > 3.16 µM (inactive); in experiment [5], > 3.98 µM (inactive); in [6], > 2.51 µM (inactive); in experiment [7] it was > 3.16 µM (inactive); in experiment [8], > 2 µM (inactive); in experiment [9] it was > 3.98 µM (inactive). The Ki is > 3.98 µM (inactive) in experiment [10] and > 3.16 µM (inactive) in experiment [11].

The AC50 is the concentration giving half of the maximal activity seen. Take `Oc1ccc(-c2nc(-c3ccncc3)c(-c3ccc(F)cc3)[nH]2)cc1` [SB-202190]: the Ki is > 2.51 µM (inactive) in experiment [12]; > 3.16 µM (inactive) in experiment [4]; > 3.98 µM (inactive) in [5]; > 2 µM (inactive) in experiment [13]; 1 µM (active) in experiment [14]; > 5.01 µM (inactive) in experiment [15]. For the same molecule, the Ki in [6] was > 2.51 µM (inactive); in experiment [7], > 3.16 µM (inactive); in experiment [8], > 2 µM (inactive); in experiment [17], > 3.98 µM (inactive); in experiment [18], > 3.16 µM (inactive); in [11] it was > 3.16 µM (inactive). For the same molecule, the AC50 in experiment [16] is 10 µM (inconclusive).

Consider `CCCCC(=O)Nc1cc(-c2c[nH]c3ncccc23)cc(Cl)n1`, for which the Ki is > 3.16 µM (inactive) in experiment [12]; > 3.98 µM (inactive) in experiment [19]; > 2 µM (inactive) in experiment [13]; > 2.51 µM (inactive) in [20]; > 3.98 µM (inactive) in experiment [9]; > 3.98 µM (inactive) in experiment [10].

(Values after ChEMBL document CHEMBL1201862, “PubChem BioAssay data set” (2004).)
